Source: patent US20090111820A1, “FUSED PYRROLIDINE 1,2,4-TRIAZOLE DERIVATIVES AS MODULATORS OF MGLUR5” (priority 2007, published 2009)

Key:
[1] = Determination of brain to plasma ratio in rat; assay type: in vivo; details: brain and plasma, female Sprague Dawley rats, read-out: Brain/Plasma Ratio of compound in Rat
Protocol: Determination of Brain to Plasma Ratio in Rat
Brain to plasma ratios are estimated in female Sprague Dawley rats. The compound is dissolved in water or another appropriate vehicle. For determination of brain to plasma ratio the compound is administrated as a subcutaneous, or an intravenous bolus injection, or an intravenous infusion, or an oral administration. At a predetermined time point after the administration a blood sample is taken with cardiac puncture. The rat is terminated by cutting the heart open, and the brain is immediately retained. The blood samples are collected in heparinized tubes and centrifuged within 30 minutes, in order to separate the plasma from the blood cells. The plasma is transferred to 96-well plates and stored at −20° C. until analysis. The brains are divided in half, and each half is placed in a pre-tarred tube and stored at −20° C. until analysis. Prior to the analysis, the brain samples are thawed and 3 mL/g brain tissue of distilled water is added to the tubes. The brain samples are sonicated in an ice bath until the samples are homogenized. Both brain and plasma samples are precipitated with acetonitrile. After centrifugation, the supernatant is diluted with 0.2% formic acid. Analysis is performed on a short reversed-phase HPLC column with rapid gradient elution and MSMS detection using a triple quadrupole instrument with electrospray ionisation and Selected Reaction Monitoring (SRM) acquisition. Liquid-liquid extraction may be used as an alternative sample clean-up. The samples are extracted, by shaking, to an organic solvent after addition of a suitable buffer. An aliquot of the organic layer is transferred to a new vial and evaporated to dryness under a stream of nitrogen. After reconstitution of the residuals the samples are ready for injection onto the HPLC column.

human mGluR5d = molecular target: T1, human mGluR5d (Homo sapiens, UniProt P41594); experiment: FLIPR assay, mGluR5 antagonism (intracellular calcium mobilization); assay type: cell-based; details: cells expressing human mGluR5d; fluo-3 calcium signal; read-out: FLIPR hmGluR5d
T1 construct: expressed in transfected cells; It is kept under hygromycin B and Zeocin selection; The separate IP3 assay names GHEK cells
Description: Functional Assessment of mGluR5 Antagonism in Cell Lines Expressing mGluR5D
The properties of the compounds of the invention can be analyzed using standard assays for pharmacological activity. Examples of glutamate receptor assays are well known in the art as described in for example Aramori et al., Neuron 8:757 (1992), Tanabe et al., Neuron 8:169 (1992), Miller et al., J. Neuroscience 15: 6103 (1995), Balazs, et al., J. Neurochemistry 69:151 (1997). The methodology described in these publications is incorporated herein by reference. Conveniently, the compounds of the invention can be studied by means of an assay (FLIPR) that measures the mobilization of intracellular calcium, [Ca^2+], in cells expressing mGluR5 or another assay (IP3) that measures inositol phosphate turnover.
Cells expressing human mGluR5d as described in WO97/05252 cultured in a mixture of high glucose DMEM with Glutamax (31966-021) (500 mL), 10% dialyzed fetal bovine serum (Hyclone #SH30079.03) (56 mL), 200 μg/mL Hygromycin B (Invitrogen 45-0430, 50 mg/mL)(2.2 mL), 200 μg/mL Zeocin (Invitrogen #R250-01; 100 mg/mL)(1.1 mL) are seeded at a density of 100,000 cells per well on collagen coated clear bottom 96-well plates with black sides and cells were allowed to adhere over night before experiments. All assays are done in a buffer containing 146 mM NaCl, 5 mM KCl, 1 mM MgCl2, 1 mM CaCl2, 20 mM HEPES, 1 mg/mL glucose and 1 mg/mL BSA Fraction IV (pH 7.4). Cell cultures in the 96-well plates are loaded for 60 minutes in the above mentioned buffer containing 6 μM of the acetoxymethyl ester form of the fluorescent calcium indicator fluo-3 (Molecular Probes, Eugene, Oreg.) in 0.025% pluronic acid (a proprietary, non-ionic surfactant polyol -CAS Number 9003-11-6). Following the loading period the fluo-3buffer is removed and replaced with fresh assay buffer. FLIPR experiments are done using a laser setting of 0.700 W and a 0.4 second CCD camera shutter speed with excitation and emission wavelengths of 488 nm and 562 nm, respectively. Each experiment is initiated with 160 μl of buffer present in each well of the cell plate. A 40 μl addition from the antagonist plate was followed by a 50 μL addition from the agonist plate. A 30 minutes, in dark at 25° C., interval separates the antagonist and agonist additions. The fluorescence signal is sampled 50 times at 1-second intervals followed by 3 samples at 5-second intervals immediately after each of the two additions. Responses are measured as the difference between the peak heights of the response to agonist, less the background fluorescence within the sample period. IC50 determinations are made using a linear least squares fitting program.

T1 sequence (P41594 21-942 isoform P41594-3 limits assumed): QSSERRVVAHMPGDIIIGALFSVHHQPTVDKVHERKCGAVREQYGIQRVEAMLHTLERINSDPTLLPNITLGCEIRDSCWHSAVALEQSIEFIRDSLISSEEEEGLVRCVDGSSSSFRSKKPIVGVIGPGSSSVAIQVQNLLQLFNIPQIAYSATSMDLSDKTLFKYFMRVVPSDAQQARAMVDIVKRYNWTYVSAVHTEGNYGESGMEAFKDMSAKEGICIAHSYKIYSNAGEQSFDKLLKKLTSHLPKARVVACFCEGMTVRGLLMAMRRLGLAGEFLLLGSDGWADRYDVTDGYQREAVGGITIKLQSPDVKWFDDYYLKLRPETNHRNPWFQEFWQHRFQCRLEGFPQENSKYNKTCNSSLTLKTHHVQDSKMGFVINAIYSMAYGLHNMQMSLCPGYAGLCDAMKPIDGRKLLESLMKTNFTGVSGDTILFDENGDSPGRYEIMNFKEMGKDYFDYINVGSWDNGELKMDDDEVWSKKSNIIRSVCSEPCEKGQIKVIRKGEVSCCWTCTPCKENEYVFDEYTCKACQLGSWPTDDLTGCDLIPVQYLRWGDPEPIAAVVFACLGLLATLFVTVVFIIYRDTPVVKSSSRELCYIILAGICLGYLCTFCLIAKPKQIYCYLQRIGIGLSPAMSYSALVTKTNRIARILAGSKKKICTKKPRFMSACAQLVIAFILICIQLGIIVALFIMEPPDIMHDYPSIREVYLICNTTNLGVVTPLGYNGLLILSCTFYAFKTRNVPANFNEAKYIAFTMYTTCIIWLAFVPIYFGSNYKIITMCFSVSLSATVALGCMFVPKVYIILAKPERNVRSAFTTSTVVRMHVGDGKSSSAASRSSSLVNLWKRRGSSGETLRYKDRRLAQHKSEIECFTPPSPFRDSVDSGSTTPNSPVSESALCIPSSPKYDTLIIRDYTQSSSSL

Structure (SMILES) | Kp [1] | IC50 (human mGluR5d) [nM]
Cc1cccc(-c2cc([C@H]3C[C@H]4C[C@H]4N3c3nnc(-c4cc[nH]c(=O)n4)n3C)no2)c1 [Example 13.2, 4-(4-Methyl-5-{(1R,3R,5R)-3-[5-(3-methylphenyl)isoxazol-3-yl]-2-azabicyclo[3.1.0]hex-2-yl}-4H-1,2,4-triazol-3-yl)pyrimidin-2(1H)-one] | – | 131
Cc1cccc(-c2cc([C@H]3C[C@H]4C[C@H]4N3c3nnc(-c4cn[nH]c(=O)c4)n3C)no2)c1 [Example 13.3, 5-(4-Methyl-5-{(1R,3R,5R)-3-[5-(3-methylphenyl)isoxazol-3-yl]-2-azabicyclo[3.1.0]hex-2-yl}-4H-1,2,4-triazol-3-yl)pyrimidin-3(2H)-one] | – | 71
Cn1c(-c2ccn(C)c(=O)c2)nnc1N1[C@@H](c2cc(-c3cccc(Cl)c3)on2)C[C@H]2C[C@H]21 [Example 13.4, 4-(5-{(1R,3R,5R)-3-[5-(3-Chlorophenyl)isoxazol-3-yl]-2-azabicyclo[3.1.0]hex-2-yl}-4-methyl-4H-1,2,4-triazol-3-yl)-1-methylpyridin-2(1H)-one] | < 0.01 | 39
Cn1c(-c2cn[nH]c(=O)c2)nnc1N1[C@@H](c2cc(-c3cccc(Cl)c3)on2)C[C@H]2C[C@H]21 [Example 13.6, 5-(5-{(1R,3R,5R)-3-[5-(3-Chlorophenyl)isoxazol-3-yl]-2-azabicyclo[3.1.0]hex-2-yl}-4-methyl-4H-1,2,4-triazol-3-yl)pyridazin-3(2H)-one] | < 0.01 | 32

Second part, the compound after the results:

Kp [1] | IC50 (human mGluR5d) [nM] | Structure (SMILES)
0.01 | 73 | Cc1cccc(-c2cc([C@H]3C[C@H]4C[C@H]4N3c3nnc(-c4ccn(C)c(=O)c4)n3C)no2)c1 [Example 13.1, 1-Methyl-4-(4-methyl-5-{(1R,3R,5R)-3-[5-(3-methylphenyl)isoxazol-3-yl]-2-azabicyclo[3.1.0]hex-2-yl}-4H-1,2,4-triazol-3-yl)pyridin-2(1H)-one]
– | 14 | Cn1c(-c2ccc(C(N)=O)cc2)nnc1N1[C@@H](c2cc(-c3cccc(Cl)c3)on2)C[C@H]2C[C@H]21 [Example 13.5, 4-(5-{(1R,3R,5R)-3-[5-(3-Chlorophenyl)isoxazol-3-yl]-2-azabicyclo[3.1.0]hex-2-yl}-4-methyl-4H-1,2,4-triazol-3-yl)benzamide]
– | 51 | Cn1c(-c2ccn(C)c(=O)c2)nnc1N1C[C@H]2C[C@H]2[C@@H]1c1cc(-c2cccc(Cl)c2)on1 [Example 13.8, 4-(5-{(1R,2R,5S)-2-[5-(3-Chlorophenyl)isoxazol-3-yl]-3-azabicyclo[3.1.0]hex-3-yl}-4-methyl-4H-1,2,4-triazol-3-yl)-1-methylpyridin-2(1H)-one]
– | 46 | Cn1c(-c2cn[nH]c(=O)c2)nnc1N1C[C@H]2C[C@H]2[C@@H]1c1cc(-c2cccc(Cl)c2)on1 [Example 13.9, 5-(5-{(1R,2R,5S)-2-[5-(3-Chlorophenyl)isoxazol-3-yl]-3-azabicyclo[3.1.0]hex-3-yl}-4-methyl-4H-1,2,4-triazol-3-yl)pyridazin-3(2H)-one]
